How the values were obtained:
multi-species biofilm = experiment: biomass of multi-species biofilm, crystal violet staining; assay type: cell-based, halitosis subjects (saliva)
Procedure: The association between biofilm biomass and halitosis degree were analyzed by evaluating biofilm formation under intervention with ET-22 viable bacteria, heat-inactivated bacteria, lysate, NAD, 2-hydroxy-3-phenylpropionic acid and peptidoglycan. Test method included the following.
Lysate Group: 10 µl of saliva was added to a 96-well plate, followed by separate addition of ET-22 viable bacteria (1.0×10^9 CFU/ml), ET-22 heat-inactivated bacterial cells (obtained by inactivating viable bacteria at 1.0×10^9 CFU/ml), and lysate (obtained by inactivating and filtering viable bacteria at 1.0×10^9 CFU/ml), each at 100 µl. Then, 80 µl of SHI medium was added. The plate was placed in an anaerobic box and cultured anaerobically at 37°C for 10 hours. Six replicates were set for each group.
NAD Group: 10 µl of saliva was added to a 96-well plate, followed by separate addition of ET-22 viable bacteria (1.0×10^9 CFU/ml), ET-22 heat-inactivated bacterial cells (obtained by heat-inactivating viable bacteria at 1.0×10^9 CFU/ml), and NAD (100 µg/ml), each at 100 µl. Then, 80 µl of SHI medium was added. The plate was placed in an anaerobic box and cultured anaerobically at 37°C for 10 hours. Six replicates were set for each group. […]
(5) The well plate was placed in a microplate reader and the biofilm biomass was measured at 600 nm.

biofilm = experiment: scanning electron microscopy (SEM) of biofilm on HA disc; assay type: cell-based, halitosis subjects (saliva); details: pure components 100 µg/ml, others from 1.0×10^9 CFU/ml, 37°C 10 hours
Procedure: Lysate group: A hydroxyapatite (HA) disc was placed in a 96-well plate. 10 µl of saliva was added to the 96-well plate, followed by separate addition of ET-22 viable bacteria (1.0×10^9 CFU/ml), ET-22 heat-inactivated bacterial cells (obtained by inactivating viable bacteria at 1.0×10^9 CFU/ml), and lysate (obtained by inactivating and filtering viable bacteria at 1.0×10^9 CFU/ml), each at 10 µl. Then, 80 µl of SHI medium was added. The 96-well plate was placed in an anaerobic box and cultured anaerobically at 37°C for 10 hours.
NAD group: A hydroxyapatite (HA) disc was placed in a 96-well plate. 10 µl of saliva was added to the 96-well plate, followed by separate addition of ET-22 viable bacteria (1.0×10^9 CFU/ml), ET-22 heat-inactivated bacterial cells (obtained by heat-inactivating viable bacteria at 1.0×10^9 CFU/ml), and NAD (100 µg/ml), each at 10 µl. Then, 80 µl of SHI medium was added. The 96-well plate was placed in an anaerobic box and cultured anaerobically at 37°C for 10 hours.
2-hydroxy-3-phenylpropionic acid group: A hydroxyapatite (HA) disc was placed in a 96-well plate. 10 µl of saliva was added to the 96-well plate, followed by separate addition of ET-22 viable bacteria (1.0×10^9 CFU/ml), ET-22 heat-inactivated bacterial cells (obtained by heat-inactivating viable bacteria at 1.0×10^9 CFU/ml), and 2-hydroxy-3-phenylpropionic acid (100 µg/ml), each at 10 µl. […]

O=C(O)C(O)Cc1ccccc1 (stereo not drawn) [2-hydroxy-3-phenylpropionic acid]
biofilm biomass (multi-species biofilm; compared with CK group, optical density, pure components 100 µg/ml, others from 1.0×10^9 CFU/ml, 37°C 10 hours): significant decrease
intervention effect on the biofilm biomass (multi-species biofilm; relative to ET-22 viable bacteria and heat-inactivated bacteria): better
biofilm structure (SEM observation) (biofilm): the number of bacterial cell layers decreases, and the biofilm becomes thinner

— EP4772186A1, “USE AND COMPOSITION OF POSTBIOTIC OF LACTOBACILLUS PARACASEI ET-22” (Inner Mongolia Yili Industrial Group Co., Ltd., priority 2023, dated 2025)
